Values joined by “and” are separate entries in the source; they are usually repeats but may differ in a detail not shown here. Identical values can stand only once. “Also recorded” adds a separate entry of the source. Like-named read-outs stand apart in the source and are kept apart here.
What was measured:
[1] = test system: P2Y receptor (aorta endothelium); assay: Relaxation of noradrenalin-contracted rabbit aorta; settings: rabbit aorta; log molar units
[2] = target: P2Y receptor (mesenteric artery); assay: Relaxation of rabbit mesenteric artery; settings: log molar units
Text: Muscular relaxation/contraction: Relaxant responses mediated via P2Y receptors were examined in guinea pig taenia coli, rabbit aorta, and rabbit mesenteric artery, as described by Hoyle et al. (Br. J. Pharmacol., 107, 367-374 (1992a)), Burnstock et al., (Br. J. Pharmacol., 90, 383-391 (1987a)), and Rubino et al., (Eur. J. Pharmacol., 212, 237-240 (1992)).

[3] = target: T1, P2Y receptor (turkey erythrocyte membranes) (Meleagris gallopavo, UniProt P49652); assay: Stimulation of phospholipase C (inositol phosphate formation) in turkey erythrocyte membranes; format: biochemical; settings: for maximal level (100%) of [3H]inositol phosphate accumulation: with GTPγS and maximal concentration of agonist
T1 construct: from tissue; host or cells: washed turkey erythrocytes, ghosts prepared by hypotonic lysis
Outline: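 Erythrocytes were labelled 18-24 h at 37 °C with [3H]myoinositol, and ghosts were made by hypotonic lysis. Ghosts (≈175 μg protein) were incubated 5 min at 30 °C in Hepes buffer pH 7.0 with 1 μM GTPγS and nucleotide analogs. Total [3H]inositol phosphates were purified by anion exchange; K0.5 averaged from 3-8 dose-response curves.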

[4] = target: T2, P2Y receptor (taenia coli) (Cavia porcellus, UniProt P59902); assay: Relaxation of carbachol-contracted guinea pig taenia coli
T2 construct: Relaxant responses mediated via P2Y receptors were examined in guinea pig taenia coli; from tissue; host or cells: guinea pig taenia coli (carbachol-contracted)
Outline: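 Guinea pig taenia coli precontracted with 50 nM carbachol; relaxation to applied P2Y agonists expressed as percentage relaxation against negative log molar agonist concentration.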

[5] = target: T3, P2X receptor (saphenous artery) (Oryctolagus cuniculus, UniProt G1U3D6); assay: Contraction of rabbit saphenous artery; settings: rabbit saphenous artery; for activation at 10 µM: read-out: response at 10 μM relative to the contraction produced by 1 μM α,MeATP, saph. artery
T3 construct: and rabbit saphenous artery; from tissue; host or cells: rabbit saphenous artery
T3 sequence (G1U3D6 1-399): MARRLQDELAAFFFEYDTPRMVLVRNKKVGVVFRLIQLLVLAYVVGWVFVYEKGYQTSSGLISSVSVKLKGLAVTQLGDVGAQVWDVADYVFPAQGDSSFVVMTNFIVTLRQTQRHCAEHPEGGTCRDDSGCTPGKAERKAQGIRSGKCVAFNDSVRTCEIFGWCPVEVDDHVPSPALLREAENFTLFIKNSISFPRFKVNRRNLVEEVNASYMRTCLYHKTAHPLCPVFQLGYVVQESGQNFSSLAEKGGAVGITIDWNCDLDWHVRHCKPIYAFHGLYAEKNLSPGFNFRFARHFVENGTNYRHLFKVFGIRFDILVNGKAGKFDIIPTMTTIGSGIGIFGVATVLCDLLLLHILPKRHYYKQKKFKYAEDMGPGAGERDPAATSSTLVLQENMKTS
Outline: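 Contraction of isolated rabbit saphenous artery, standard organ-bath methods; responses at 10 μM expressed as percentage of contraction produced by 1 μM α,MeATP. Highest analogue concentrations tested were 3-30 […].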

[6] = turkey erythrocyte membranes, mean ± S.E.M. for at least 2 determinations, read-out: phosphatidyl inositol metabolism (K0.5, nM) erythrocyte

T1 sequence (P49652 whole entry): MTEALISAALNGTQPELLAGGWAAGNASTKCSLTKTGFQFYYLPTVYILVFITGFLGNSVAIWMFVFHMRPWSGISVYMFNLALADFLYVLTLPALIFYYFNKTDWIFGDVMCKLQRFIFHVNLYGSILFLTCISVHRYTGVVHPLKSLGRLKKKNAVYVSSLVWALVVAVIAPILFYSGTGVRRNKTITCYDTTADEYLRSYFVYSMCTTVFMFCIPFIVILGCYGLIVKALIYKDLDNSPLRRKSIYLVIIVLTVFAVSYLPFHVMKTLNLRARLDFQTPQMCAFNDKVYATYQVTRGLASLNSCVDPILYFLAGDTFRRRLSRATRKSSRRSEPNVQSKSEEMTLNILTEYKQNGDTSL
T2 sequence (P59902 whole entry): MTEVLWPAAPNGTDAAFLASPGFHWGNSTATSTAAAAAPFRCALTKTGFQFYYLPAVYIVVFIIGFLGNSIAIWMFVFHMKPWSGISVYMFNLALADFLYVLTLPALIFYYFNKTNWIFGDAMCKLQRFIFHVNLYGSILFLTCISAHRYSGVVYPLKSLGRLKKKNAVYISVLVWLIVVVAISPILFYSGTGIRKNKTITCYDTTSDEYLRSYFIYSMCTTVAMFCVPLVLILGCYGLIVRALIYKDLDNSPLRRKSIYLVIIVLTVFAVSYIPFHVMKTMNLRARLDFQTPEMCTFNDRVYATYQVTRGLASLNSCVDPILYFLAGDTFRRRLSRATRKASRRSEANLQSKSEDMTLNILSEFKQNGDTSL

`C=CCCCCSc1nc(NC)c2ncn([C@@H]3O[C@H](COP(=O)(O)OP(=O)(O)OP(=O)(O)O)[C@@H](O)[C@H]3O)c2n1` [N^6 -Me-2-(5-hexenyl)-thio-ATP, N^6 -Me-2-(5-hexenylthio)adenosine 5'-triphosphate] was tested, and the “relaxation pD2, aorta” value [1] was 5.6, the “relaxation pD2, mes. artery” value [2] was 6.0 and the “fold diminished potency upon N6-methylation, turkey erythrocyte” value ([3]; relative to 2-(5-hexenyl)thio-ATP) was 2.6 -fold. The EC50 [3, 6] was 26 ± 7 nM, the EC50 ([3]; turkey erythrocyte membranes, read from graph, read-out: K0.5) was 10 nM and the “maximal level (100%) of [3H]inositol phosphate accumulation” value [3] was 9150 cpm. The “relaxation pD2, taenia coli” value ([4]; guinea pig taenia coli, log molar units) was 7.2 and the activation at 10 µM [5] was 1.5%.

With `N#CCCCCCCSc1nc(N)c2ncn([C@@H]3O[C@H](COP(=O)(O)OP(=O)(O)OP(=O)(O)O)[C@@H](O)[C@H]3O)c2n1` [2-(6-Cyanohexylthio)-ATP, 2-(6-Cyanohexylthio)adenosine-5'-triphosphate] the “relaxation pD2, aorta” value [1] was 6.9, the “relaxation pD2, mes. artery” value [2] was 7.0 and the “activity/potency in words, turkey erythrocyte” value ([3]; turkey erythrocyte membranes) was “at least two orders of magnitude more potent; also recorded: about three orders of magnitude more potent”. For the same molecule, the EC50 [3, 6] was 10 ± 5 nM, the EC50 ([3]; turkey erythrocyte membranes, read-out: K0.5) was 5 to 30 nM and ~10 nM and the “maximal level (100%) of [3H]inositol phosphate accumulation” value [3] was 6000 cpm. The EC50 [4] was 1.58 nM, the “activity/potency in words, saphenous artery” value [5] was “at best weak agonists in the saphenous artery” and the activation at 10 µM [5] was 9.2%.

Source: US5620676A, “Biologically active ATP analogs” (priority 1995, dated 1997)
